Results as given in patent publication US20030139371A1, “Drug for combating sexual dysfunctions” (priority 2000, published 2003).

Key:
[1] = test system: corpus cavernosum smooth muscle from female rabbits; test: Relaxation of phenylephrine-precontracted corpus cavernosum smooth muscle in organ chambers, female rabbits; design: species or system rabbit; conditions: after phenylephrine precontraction; for relaxation of the corpus cavernosum in the presence of aspirin: purine 10^-3M in the presence of aspirin; for relaxation of the corpus cavernosum: purine alone at 10^-3M
[2] = test system: corpus cavernosum smooth muscle from male rabbits; test: Relaxation of phenylephrine-precontracted corpus cavernosum smooth muscle in organ chambers, male rabbits; design: species or system rabbit; conditions: for relaxation of the corpus cavernosum smooth muscle in the presence of aspirin / relaxation of the corpus cavernosum smooth muscle: male rabbits, after phenylephrine precontraction; for relaxation of the corpus cavernosum smooth muscle in the presence of aspirin: purine 10^-3M combined with aspirin 10^-3M; for relaxation of the corpus cavernosum smooth muscle: purine alone at 10^-3M
[3] = test system: isolated rabbit corpus cavernosum; test: Isolated rabbit corpus cavernosum in organ chambers, sex not specified or both sexes; conditions: for potentiation of the relaxant effect of purine by the NSAID: NSAID in place of aspirin, combined with purine
Source text: The in vitro model we used was that of the isolated rabbit corpus cavernosum in organ chambers. […] In fact, the best correlations with the results found in humans have been found in the rabbit; see, e.g., Bush P. A., Aronson W. J., Buga G. M., Rajfer J., Ignarro L. J., J. Urol. 147(6); 1650-1655 (1992); Knispel H. H., Goessel C., Bechman R., Urol. Res. 20(4); 253-257 (1992); Holmquist F., Hedlund H., Andersson K. E., J. Physiol. (London) 449; 295-311 (1992); and Cellek S., Moncada S., Proc. Natl. Acad. Sci. USA 94(15); 8226-8231 (1997).
The relaxant action of purines was studied in this model either with purines alone or with an inhibitor of NO synthesis (N-omega-nitro-L-arginine, or L-NNA) so as to investigate whether the regulation by purines of the production of NO is a component of the relaxant effect of purines.
In a similar manner, we investigated whether the presence of an inhibitor of the synthesis of prostaglandins (cyclooxygenase inhibitor) modified the effects of purine. If the action of purine could be explained in part by an indirect effect via prostaglandins, we would expect to see a decrease in the effect of purine in the presence of the cyclooxygenase inhibitor.
This study was performed in vitro on corpus cavernosum smooth muscles from male and female rabbits. The technique is that of organ chambers.
The study was performed on male and female rabbits.

SMILES: Nc1ncnc2c1ncn2[C@@H]1O[C@H](COP(=O)(O)O)[C@@H](O)[C@H]1O [AMP]
- relaxation of the corpus cavernosum in the presence of aspirin [1]: 36%
- relaxation of the corpus cavernosum [1]: 20%
- relaxation of the corpus cavernosum smooth muscle in the presence of aspirin [2]: 92%
- relaxation of the corpus cavernosum smooth muscle [2]: 70%

SMILES: Nc1ncnc2c1ncn2[C@@H]1O[C@H](COP(=O)(O)OP(=O)(O)OP(=O)(O)O)[C@@H](O)[C@H]1O [ATP, adenosine triphosphate]
- relaxation of the corpus cavernosum in the presence of aspirin [1]: 50%
- relaxation of the corpus cavernosum [1]: 31%
- relaxation of the corpus cavernosum smooth muscle in the presence of aspirin [2]: 57%
- relaxation of the corpus cavernosum smooth muscle [2]: 35%

SMILES: NC(=NCCC[C@H](N)C(=O)O)N[N+](=O)[O-] [L-NNA, N-omega-nitro-L-arginine]
- decrease of the relaxant effect of purine in the presence of an inhibitor of NO synthesis ([3]; compared with purine alone): about 15%

SMILES: CC(=O)Oc1ccccc1C(=O)O [aspirin, acetylsalicylic acid, reference compound]
- vasoactivity of the NSAID by itself on this model ([2]; aspirin alone): not vasoactive

SMILES: COc1ccc2c(c1)c(CC(=O)O)c(C)n2C(=O)c1ccc(Cl)cc1 [indomethacin]
- potentiation of the relaxant effect of purine by the NSAID [3]: confirmed

SMILES: Cc1cccc(Nc2ccccc2C(=O)O)c1C [mefenamic acid]
- potentiation of the relaxant effect of purine by the NSAID [3]: confirmed

SMILES: O=C(O)c1ccccc1O [salicylic acid]
- potentiation of the relaxant effect of purine by the NSAID [3]: confirmed
